Test [1] in a line: Inhibition of Bos taurus (bovine) heart mitochondrial […] activity assessed per mg protein.
Test [2] has as its system Solanum tuberosum. Put plainly: Inhibition of Solanum tuberosum (potato) tuber succinate oxidase activity at 3600 nmol/mg protein.
Test [3] relates to Solanum tuberosum. Put plainly: Inhibition of Solanum tuberosum (potato) tuber electron transport protein complex 3 activity.
Test [4] in a line: Inhibition of Bos taurus (bovine) heart mitochondrial electron transport protein complex 3 assessed per mg protein.
Test [5] can be described thus: Inhibition of Bos taurus (bovine) heart mitochondrial electron transport protein complex 2/3 assessed per mg protein.
Test [6] concerns Solanum tuberosum. Put plainly: Inhibition of Solanum tuberosum (potato) tuber electron transport protein complex 4 activity.
Test [7] in a line: Inhibition of Bos taurus (bovine) heart mitochondrial electron transport protein complex 4 assessed per mg protein.
The test system of test [8] is Solanum tuberosum. Briefly: Inhibition of Solanum tuberosum (potato) tuber electron transport protein complex 2 activity.
A short description of test [9]: Inhibition of Bos taurus (bovine) heart mitochondrial electron transport protein complex 2 assessed per mg protein.
A short description of test [10]: Inhibition of Bos taurus (bovine) heart mitochondrial electron transport protein complex 1 assessed per mg protein.
A short description of test [11]: Inhibition of Solanum tuberosum (potato) tuber proton-pump NADH dehydrogenase activity assessed per mg protein.

Molecules are shown by their SMILES. Calls of active or inactive are those of the source. The calls are words filed in the database; no cut-off is given here.

This is an account of results in ChEMBL document CHEMBL3046518, “Phytotoxic Compounds Cochlioquinones Are Inhibitors of Mitochondrial NADH-Ubiquinone Reductase” (J Pestic Sci, 1996).

With `CC[C@H](C)[C@@H](OC(C)=O)[C@@H](C)C1=CC(=O)C2=C(O[C@]3(C)CC[C@H]4O[C@@H](C(C)(C)O)CC[C@]4(C)[C@H]3[C@@H]2O)C1=O` [COCHLIOQUINONE A], the IC50 in [1] stood at 115 nmol.
Take `CC[C@H](C)C(=O)[C@@H](C)C1=CC(=O)C2=C(O[C@]3(C)CC[C@H]4O[C@@H](C(C)(C)O)CC[C@]4(C)[C@H]3C2)C1=O` [COCHLIOQUINONE B]: the inhibition result in the test on Solanum tuberosum [2], with Solanum tuberosum [3], with Solanum tuberosum [6] and in the test on Solanum tuberosum [8] was “inactive” each time. The IC50 in test [4] is reported as over 3600 nmol; in test [5] it was over 3600 nmol; in test [7], over 3600 nmol; in [9], over 3600 nmol; in test [10], 370 nmol; in test [1], 83 nmol. The IC50 in test [11] was 3000 nmol.
For the compound `CC[C@H](C)[C@@H](OC(C)=O)[C@@H](C)c1cc(O)c2c(c1O)O[C@]1(C)CC[C@H]3O[C@@H](C(C)(C)O)CC[C@]3(C)[C@H]1C2=O` [ISOCOCHLIOQUINONE A], the IC50 in [1] was 56 nmol.
`C/C=C(\C)[C@@H](OC(C)=O)[C@@H](C)C1=CC(=O)C2=C(O[C@]3(C)CC[C@H]4O[C@@H](C(C)(C)O)CC[C@]4(C)[C@H]3[C@@H]2O)C1=O` [STEMPHONE] showed an IC50 in test [1] of 160 nmol.
